Reference: US8206983B2, “In vitro methods for the induction and maintenance of plant cell lines as single suspension cells with intact cell walls” (Dow AgroSciences, LLC., priority 2006, dated 2012)

System: JTNT1 single cells
Assay: AFLP analysis of genomic instability in JTNT1 single cells produced in 1 uM diphenylpyrazole
Type: cell-based, tobacco
Protocol: JTNT1 Tobacco single cell initiation and sample collection. JTNT1 Tobacco single cells were initiated in two different media, NT1B with 3% sucrose (NT1B-Suc) and NT1B with 3% glycerol (NT1B-Gly) in 3.5 day culture cycle. […] The flasks were closed with a foam stopper and cultured on a orbital shaker at 130 rpm in dark at 25-28° C. The cultures were sub cultured every 3.5 days up to a period of 14 days. Four samples (Suc/Gly grown cells and the control cultures in Suc/Gly media with 0.2% DMSO) of the cultures were harvested every 3.5 days by spinning the suspension at 3000 rpm for 5 minutes. The samples were immediately lyophilized to prevent any cell oxidation to minimize any deleterious effect on the samples introduced post harvest. Single cells were stained with Hoechst nuclear stain for an hour and observed under scopes for any nuclear anomaly up to two culture cycles.
DNA extraction. Genomic DNA from representative samples were harvested from 3.5, 7, 10.5, and 14 days. Suc and Gly cultures along with the controls (10 samples) were extracted using CTAB protocol (See Appendix-Example 12). DNA was quantified using PicoGreen® dye from Molecular Probes, Inc. (Eugene, Oreg.). Each well of a microtiter plate contained 90 μl of 200-fold picogreen combined with 10 μl of DNA sample at 40× dilution or Lambda DNA standards (0, 2.5, 5 and 10 ng/μl). Plates were shaken briefly using standard plate shaker, and fluorescence was read (excitation ˜480 nm, emission ˜520 nm) using Spectra Max GeminiXS fluorometer from Molecular Devices (Sunnyvale, Calif.). Each sample was quantified in triplicate, and an average of the three results was used for subsequent dilutions. The DNA sample concentrations were diluted to working concentration of 91 ng/μl with sterile water.
AFLP analysis. Amplified fragment length polymorphism (AFLP) assays were performed using a modification of the protocol of Vos et. al. (1995), as described in Bryan et. al. (2002). The 6-bp cutting restriction enzyme EcoRI was used in combination with the 4-bp cutting restriction enzyme MseI. EcoR1 fluorescently labeled and Mse1 non-labeled AFLP primers were ordered from Applied Biosystems (Foster City, Calif.). AFLP analysis was carried out using Applied Biosystems' AFLP Plant Mapping Protocol through the selective amplification reaction with one modification. The modification was that digestion/ligation reactions were incubated at 37° C. overnight. Selectively amplified products were diluted 2 fold in sterilized deionized water. 0.5 ul of the diluted product was combined with 5 ul of loading buffer (5 ul GeneScan 500 by LIZ size standard mixed with 500 ul ABI HiDi Formamide). Samples were analyzed on an AB3730XL DNA Analyzer with G5-RCT spectral matrix using standard conditions. Data was then imported into GeneMapper® version 4.0 (Applied Biosystems, 2005). Alleles were assigned a numeric value according to PCR fragment size.

## CCOC(=O)COc1nn(-c2ccccc2)c(-c2ccccc2)c1Cl [DAS-PMTI-1]
All primer combinations, 14 d, Gly, 1 uM
  Number of polymorphic bands, Total: 34
Concentration range tested
  subculture cycles without genomic instability problem: at least 4 subculture cycles
Primer 1p AC/CAG, 3.5 d, Gly, 1 uM
  Number of polymorphic bands: 0
Primer 1p AC/CAG, 3.5 d, Suc, 1 uM
  Number of polymorphic bands: 0
Primer 1p AC/CAG, 7 d, Gly, 1 uM
  Number of polymorphic bands: 0
Primer 1p AC/CAG, 7 d, Suc, 1 uM
  Number of polymorphic bands: 0
Primer 1p AC/CAG, 10.5 d, Gly, 1 uM
  Number of polymorphic bands: 0
Primer 1p AC/CAG, 10.5 d, Suc, 1 uM
  Number of polymorphic bands: 0
Primer 1p AC/CAG, 14 d, Gly, 1 uM
  Number of polymorphic bands: 5
Primer 1p AC/CAG, 14 d, Suc, 1 uM
  Number of polymorphic bands: 0
Primer 2p AGC/CAG, 3.5 d, Gly, 1 uM
  Number of polymorphic bands: 0
Primer 2p AGC/CAG, 3.5 d, Suc, 1 uM
  Number of polymorphic bands: 0
Primer 2p AGC/CAG, 7 d, Gly, 1 uM
  Number of polymorphic bands: 0
Primer 2p AGC/CAG, 7 d, Suc, 1 uM
  Number of polymorphic bands: 0
Primer 2p AGC/CAG, 10.5 d, Gly, 1 uM
  Number of polymorphic bands: 0
Primer 2p AGC/CAG, 10.5 d, Suc, 1 uM
  Number of polymorphic bands: 0
Primer 2p AGC/CAG, 14 d, Gly, 1 uM
  Number of polymorphic bands: 10
Primer 2p AGC/CAG, 14 d, Suc, 1 uM
  Number of polymorphic bands: 0
Primer 3p AGC/CTG, 3.5 d, Gly, 1 uM
  Number of polymorphic bands: 0
Primer 3p AGC/CTG, 3.5 d, Suc, 1 uM
  Number of polymorphic bands: 0
Primer 3p AGC/CTG, 7 d, Gly, 1 uM
  Number of polymorphic bands: 0
Primer 3p AGC/CTG, 7 d, Suc, 1 uM
  Number of polymorphic bands: 0
Primer 3p AGC/CTG, 10.5 d, Gly, 1 uM
  Number of polymorphic bands: 0
Primer 3p AGC/CTG, 10.5 d, Suc, 1 uM
  Number of polymorphic bands: 0
Primer 3p AGC/CTG, 14 d, Gly, 1 uM
  Number of polymorphic bands: 0
Primer 3p AGC/CTG, 14 d, Suc, 1 uM
  Number of polymorphic bands: 0
Primer 4p ACT/CTT, 3.5 d, Gly, 1 uM
  Number of polymorphic bands: 0
Primer 4p ACT/CTT, 3.5 d, Suc, 1 uM
  Number of polymorphic bands: 0
Primer 4p ACT/CTT, 7 d, Gly, 1 uM
  Number of polymorphic bands: 0
Primer 4p ACT/CTT, 7 d, Suc, 1 uM
  Number of polymorphic bands: 0
Primer 4p ACT/CTT, 10.5 d, Gly, 1 uM
  Number of polymorphic bands: 0
Primer 4p ACT/CTT, 10.5 d, Suc, 1 uM
  Number of polymorphic bands: 0
Primer 4p ACT/CTT, 14 d, Gly, 1 uM
  Number of polymorphic bands: 5
Primer 4p ACT/CTT, 14 d, Suc, 1 uM
  Number of polymorphic bands: 0
Primer 5p ACT/CAG, 3.5 d, Gly, 1 uM
  Number of polymorphic bands: 0
Primer 5p ACT/CAG, 3.5 d, Suc, 1 uM
  Number of polymorphic bands: 0
Primer 5p ACT/CAG, 7 d, Gly, 1 uM
  Number of polymorphic bands: 0
Primer 5p ACT/CAG, 7 d, Suc, 1 uM
  Number of polymorphic bands: 0
Primer 5p ACT/CAG, 10.5 d, Gly, 1 uM
  Number of polymorphic bands: 0
Primer 5p ACT/CAG, 10.5 d, Suc, 1 uM
  Number of polymorphic bands: 0
Primer 5p ACT/CAG, 14 d, Gly, 1 uM
  Number of polymorphic bands: 3
Primer 5p ACT/CAG, 14 d, Suc, 1 uM
  Number of polymorphic bands: 0
Primer 7p ACC/CAG, 3.5 d, Gly, 1 uM
  Number of polymorphic bands: 0
Primer 7p ACC/CAG, 3.5 d, Suc, 1 uM
  Number of polymorphic bands: 0
Primer 7p ACC/CAG, 7 d, Gly, 1 uM
  Number of polymorphic bands: 0
Primer 7p ACC/CAG, 7 d, Suc, 1 uM
  Number of polymorphic bands: 0
Primer 7p ACC/CAG, 10.5 d, Gly, 1 uM
  Number of polymorphic bands: 0
Primer 7p ACC/CAG, 10.5 d, Suc, 1 uM
  Number of polymorphic bands: 0
Primer 7p ACC/CAG, 14 d, Gly, 1 uM
  Number of polymorphic bands: 4
Primer 7p ACC/CAG, 14 d, Suc, 1 uM
  Number of polymorphic bands: 0
Primer 8p ACC/CTG, 3.5 d, Gly, 1 uM
  Number of polymorphic bands: 0
Primer 8p ACC/CTG, 3.5 d, Suc, 1 uM
  Number of polymorphic bands: 0
Primer 8p ACC/CTG, 7 d, Gly, 1 uM
  Number of polymorphic bands: 0
Primer 8p ACC/CTG, 7 d, Suc, 1 uM
  Number of polymorphic bands: 0
Primer 8p ACC/CTG, 10.5 d, Gly, 1 uM
  Number of polymorphic bands: 0
Primer 8p ACC/CTG, 10.5 d, Suc, 1 uM
  Number of polymorphic bands: 0
Primer 8p ACC/CTG, 14 d, Gly, 1 uM
  Number of polymorphic bands: 0
Primer 8p ACC/CTG, 14 d, Suc, 1 uM
  Number of polymorphic bands: 0
Primer 9p ACA/CAG, 3.5 d, Gly, 1 uM
  Number of polymorphic bands: 0
Primer 9p ACA/CAG, 3.5 d, Suc, 1 uM
  Number of polymorphic bands: 0
Primer 9p ACA/CAG, 7 d, Gly, 1 uM
  Number of polymorphic bands: 0
Primer 9p ACA/CAG, 7 d, Suc, 1 uM
  Number of polymorphic bands: 0
Primer 9p ACA/CAG, 10.5 d, Gly, 1 uM
  Number of polymorphic bands: 0
Primer 9p ACA/CAG, 10.5 d, Suc, 1 uM
  Number of polymorphic bands: 0
Primer 9p ACA/CAG, 14 d, Gly, 1 uM
  Number of polymorphic bands: 7
Primer 9p ACA/CAG, 14 d, Suc, 1 uM
  Number of polymorphic bands: 0
